Measurements taken from ChEMBL document CHEMBL1201862, “PubChem BioAssay data set” (2004).
The source made the active and inactive calls.

Key:
[1] = target: T1, Estrogen receptor beta (Homo sapiens, UniProt Q92731);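 also: recombinant ER-beta bound to coactivator SRC1 peptide in presence of estradiol agonist; inhibitors block coactivator peptide binding and lower the FRET signal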
[2] = target: T1, Estrogen receptor beta; assay: ERβ–SRC-3 coactivator interaction inhibitors, confirmation, orthogonal assay, biochemical, ELISA, streptavidin-HRP readout (AID 1060)
[3] = target: T2, Estrogen receptor (Homo sapiens, UniProt P03372);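 also: potency for inhibiting coactivator peptide recruitment to the receptor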
T2 sequence (P03372 whole entry): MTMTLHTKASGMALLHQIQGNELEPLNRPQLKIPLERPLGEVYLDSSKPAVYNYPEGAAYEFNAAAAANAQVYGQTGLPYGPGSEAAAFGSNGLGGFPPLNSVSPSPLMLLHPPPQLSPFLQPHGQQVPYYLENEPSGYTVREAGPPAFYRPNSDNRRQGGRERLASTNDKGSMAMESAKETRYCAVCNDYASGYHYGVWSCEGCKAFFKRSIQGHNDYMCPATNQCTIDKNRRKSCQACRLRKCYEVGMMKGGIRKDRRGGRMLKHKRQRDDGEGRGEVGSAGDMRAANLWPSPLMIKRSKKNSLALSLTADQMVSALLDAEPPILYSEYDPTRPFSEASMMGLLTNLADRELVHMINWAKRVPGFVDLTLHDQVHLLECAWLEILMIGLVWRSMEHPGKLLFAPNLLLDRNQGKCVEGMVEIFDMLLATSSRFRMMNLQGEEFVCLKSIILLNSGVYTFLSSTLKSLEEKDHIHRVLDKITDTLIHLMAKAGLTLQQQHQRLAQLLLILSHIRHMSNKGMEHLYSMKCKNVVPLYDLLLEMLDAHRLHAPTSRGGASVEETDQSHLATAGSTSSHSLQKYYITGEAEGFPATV

[4] = target: T3, Dual specificity protein phosphatase 6 (Rattus norvegicus, UniProt Q64346); assay: MKP-3 phosphatase inhibitors, primary screen, biochemical, rat enzyme, in vitro (AID 425)
T3 sequence (Q64346 whole entry): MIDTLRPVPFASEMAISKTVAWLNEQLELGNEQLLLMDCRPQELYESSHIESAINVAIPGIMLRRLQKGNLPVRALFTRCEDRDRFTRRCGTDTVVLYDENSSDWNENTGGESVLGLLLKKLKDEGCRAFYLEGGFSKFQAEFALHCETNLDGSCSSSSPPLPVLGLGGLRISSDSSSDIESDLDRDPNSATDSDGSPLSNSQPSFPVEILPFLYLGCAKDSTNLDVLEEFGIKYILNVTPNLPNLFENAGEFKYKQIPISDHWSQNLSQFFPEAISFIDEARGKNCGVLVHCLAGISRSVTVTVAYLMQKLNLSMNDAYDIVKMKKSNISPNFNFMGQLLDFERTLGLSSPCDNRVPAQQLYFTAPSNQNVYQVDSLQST

[5] = target: T4, RNA-editing ligase 1, mitochondrial (Trypanosoma brucei brucei, UniProt P86926); assay: TbREL1 ligase inhibitors, dose response, biochemical, fluorescence, Trypanosoma brucei (AID 1117295); type: functional
T4 sequence (P86926 whole entry): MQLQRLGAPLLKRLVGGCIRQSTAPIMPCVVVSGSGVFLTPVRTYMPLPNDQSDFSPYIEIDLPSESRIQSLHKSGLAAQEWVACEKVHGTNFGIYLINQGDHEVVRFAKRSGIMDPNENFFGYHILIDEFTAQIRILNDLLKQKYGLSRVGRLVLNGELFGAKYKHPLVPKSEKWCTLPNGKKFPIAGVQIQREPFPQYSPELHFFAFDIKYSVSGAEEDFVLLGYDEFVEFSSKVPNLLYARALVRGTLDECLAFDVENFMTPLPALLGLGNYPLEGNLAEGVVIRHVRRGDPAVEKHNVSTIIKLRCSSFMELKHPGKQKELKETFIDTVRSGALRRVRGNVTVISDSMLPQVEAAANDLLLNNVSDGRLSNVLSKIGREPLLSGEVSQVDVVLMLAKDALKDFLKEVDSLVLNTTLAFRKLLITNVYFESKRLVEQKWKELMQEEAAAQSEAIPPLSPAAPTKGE

[6] = target: T5, Apoptotic protease-activating factor 1 (Homo sapiens, UniProt O14727); type: functional
T5 sequence (O14727 whole entry): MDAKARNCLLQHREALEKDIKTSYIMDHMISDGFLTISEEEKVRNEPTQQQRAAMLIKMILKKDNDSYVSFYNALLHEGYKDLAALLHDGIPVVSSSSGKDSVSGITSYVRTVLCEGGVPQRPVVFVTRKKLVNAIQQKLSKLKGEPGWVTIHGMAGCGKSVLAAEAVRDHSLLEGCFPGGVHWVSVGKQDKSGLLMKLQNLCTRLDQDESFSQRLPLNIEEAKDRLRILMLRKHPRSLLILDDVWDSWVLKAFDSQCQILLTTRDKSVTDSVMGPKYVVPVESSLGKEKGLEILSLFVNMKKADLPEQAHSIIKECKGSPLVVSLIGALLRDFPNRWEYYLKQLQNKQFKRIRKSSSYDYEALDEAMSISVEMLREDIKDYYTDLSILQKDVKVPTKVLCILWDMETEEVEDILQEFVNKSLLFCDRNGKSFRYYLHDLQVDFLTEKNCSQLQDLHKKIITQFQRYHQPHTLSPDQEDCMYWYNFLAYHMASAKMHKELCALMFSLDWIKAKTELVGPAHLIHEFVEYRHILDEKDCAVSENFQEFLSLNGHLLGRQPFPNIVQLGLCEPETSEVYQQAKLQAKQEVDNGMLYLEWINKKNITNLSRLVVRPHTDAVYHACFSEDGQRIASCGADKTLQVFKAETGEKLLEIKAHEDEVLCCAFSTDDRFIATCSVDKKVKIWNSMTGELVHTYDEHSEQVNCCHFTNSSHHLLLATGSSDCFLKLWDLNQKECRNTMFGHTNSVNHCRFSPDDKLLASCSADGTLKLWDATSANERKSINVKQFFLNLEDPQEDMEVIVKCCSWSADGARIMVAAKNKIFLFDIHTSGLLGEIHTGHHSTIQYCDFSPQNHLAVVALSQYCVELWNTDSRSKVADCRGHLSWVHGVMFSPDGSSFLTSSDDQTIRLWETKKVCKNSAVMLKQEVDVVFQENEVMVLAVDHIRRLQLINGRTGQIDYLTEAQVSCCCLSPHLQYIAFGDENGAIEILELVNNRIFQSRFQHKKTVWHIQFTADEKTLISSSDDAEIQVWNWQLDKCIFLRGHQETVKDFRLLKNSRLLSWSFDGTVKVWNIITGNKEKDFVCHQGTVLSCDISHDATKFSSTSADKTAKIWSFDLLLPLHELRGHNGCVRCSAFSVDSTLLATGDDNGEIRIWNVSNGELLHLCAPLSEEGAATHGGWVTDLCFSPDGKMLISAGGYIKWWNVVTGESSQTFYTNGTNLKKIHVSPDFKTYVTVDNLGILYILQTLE

[7] = target: T6, Histone-lysine N-methyltransferase NSD2 (Homo sapiens, UniProt O96028); type: biochemical
T6 sequence (O96028 whole entry): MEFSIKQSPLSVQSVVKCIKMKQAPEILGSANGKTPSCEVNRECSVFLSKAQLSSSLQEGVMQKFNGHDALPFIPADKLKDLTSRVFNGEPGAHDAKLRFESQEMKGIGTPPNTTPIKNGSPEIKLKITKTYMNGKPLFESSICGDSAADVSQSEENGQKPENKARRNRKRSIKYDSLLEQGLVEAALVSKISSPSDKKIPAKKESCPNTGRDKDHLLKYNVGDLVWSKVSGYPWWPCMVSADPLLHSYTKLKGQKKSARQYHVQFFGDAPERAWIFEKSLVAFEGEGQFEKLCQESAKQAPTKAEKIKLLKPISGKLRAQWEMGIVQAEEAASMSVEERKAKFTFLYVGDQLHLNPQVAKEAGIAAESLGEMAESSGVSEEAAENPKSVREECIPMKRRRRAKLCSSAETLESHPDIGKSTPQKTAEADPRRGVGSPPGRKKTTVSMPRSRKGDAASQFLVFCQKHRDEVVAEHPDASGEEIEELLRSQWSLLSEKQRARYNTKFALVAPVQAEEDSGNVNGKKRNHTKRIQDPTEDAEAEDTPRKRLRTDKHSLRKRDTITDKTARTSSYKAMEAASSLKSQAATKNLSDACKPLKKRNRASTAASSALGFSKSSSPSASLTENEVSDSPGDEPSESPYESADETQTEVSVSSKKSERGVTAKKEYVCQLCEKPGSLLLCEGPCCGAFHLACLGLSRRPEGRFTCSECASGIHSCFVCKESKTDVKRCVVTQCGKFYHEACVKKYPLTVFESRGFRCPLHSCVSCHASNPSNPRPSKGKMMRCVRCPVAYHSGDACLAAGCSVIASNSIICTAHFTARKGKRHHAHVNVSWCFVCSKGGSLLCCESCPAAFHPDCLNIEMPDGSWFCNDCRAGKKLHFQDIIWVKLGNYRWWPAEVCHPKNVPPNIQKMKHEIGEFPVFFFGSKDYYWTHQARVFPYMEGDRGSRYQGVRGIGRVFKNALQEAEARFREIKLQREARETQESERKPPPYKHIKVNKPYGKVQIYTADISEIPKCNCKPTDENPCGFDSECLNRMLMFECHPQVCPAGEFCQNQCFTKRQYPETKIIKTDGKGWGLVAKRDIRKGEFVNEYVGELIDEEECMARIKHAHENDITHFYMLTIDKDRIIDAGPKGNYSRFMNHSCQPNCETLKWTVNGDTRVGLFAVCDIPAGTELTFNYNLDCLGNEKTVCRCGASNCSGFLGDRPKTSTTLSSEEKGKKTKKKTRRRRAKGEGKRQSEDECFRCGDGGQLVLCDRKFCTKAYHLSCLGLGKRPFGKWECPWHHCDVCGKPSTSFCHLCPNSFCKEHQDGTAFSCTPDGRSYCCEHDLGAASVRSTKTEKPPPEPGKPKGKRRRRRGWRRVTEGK

[8] = growth suppression of beta-catenin-knockout colon cells, dose response, cell-based, HCT116, human colon tumor (AID 1045); type: functional;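 also: HCT116 colon tumor cells with beta catenin knocked out; cells exposed to compound for 60 hours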
[9] = growth suppression of PTEN-null colon cells, dose response, cell-based, HCT116 PTEN knockout (AID 1047); type: functional;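 also: HCT116 colon tumor cells with PTEN knocked out; cells exposed to compound for 60 hours before readout; potency for loss of cell viability measured by luminescence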
[10] = Luminescence Cell-Based Dose Retest to Confirm Inhibitors of Cancer Stem Cells. [Related pubchem assays (depositor defined):AID2717, AID2721]; type: functional; conditions: Homo sapiens
[11] = Vero cell cytotoxicity, dose response, cytotoxicity control for Vif-APOBEC3G degradation inhibitor project, Vero cells (AID 1117358); type: functional; conditions: Human immunodeficiency virus 1, Vero
[12] = tested on: Streptococcus sp. 'group A'; assay: growth inhibition of control SK(-) GAS strain, dose response, counter-screen for streptokinase expression inhibitor project, luminescence, kanamycin, BacTiterGlo, confirmation (AID 1900); type: functional, organism-based
[13] = tested on: Vero; assay: host cell cytotoxicity of antiviral hits, dose response, cytotoxicity control for West Nile virus antiviral project, secondary assay (AID 1650); type: functional; conditions: Chlorocebus sabaeus
[14] = tested on: INS1; assay: beta cell apoptosis inhibitors, cytokine rescue, dose response, luminescence, retest (AID 449756); type: functional, cell-based; conditions: Rattus norvegicus;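 also: cell death triggered by IL-1 beta plus TNF-alpha plus IFN-gamma mixture; protective hits raise ATP signal compared with cytokine alone wells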
[15] = target: T7, Streptokinase A (Streptococcus pyogenes serotype M1, UniProt P10520); assay: S. pyogenes streptokinase expression inhibitors, potency, dose response, plasminogen activation absorbance, OD405 (AID 1914); type: functional, Streptococcus pyogenes M1 GAS;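 also: secreted streptokinase activity via plasminogen activation per viability signal from cell pellet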
T7 sequence (P10520 whole entry): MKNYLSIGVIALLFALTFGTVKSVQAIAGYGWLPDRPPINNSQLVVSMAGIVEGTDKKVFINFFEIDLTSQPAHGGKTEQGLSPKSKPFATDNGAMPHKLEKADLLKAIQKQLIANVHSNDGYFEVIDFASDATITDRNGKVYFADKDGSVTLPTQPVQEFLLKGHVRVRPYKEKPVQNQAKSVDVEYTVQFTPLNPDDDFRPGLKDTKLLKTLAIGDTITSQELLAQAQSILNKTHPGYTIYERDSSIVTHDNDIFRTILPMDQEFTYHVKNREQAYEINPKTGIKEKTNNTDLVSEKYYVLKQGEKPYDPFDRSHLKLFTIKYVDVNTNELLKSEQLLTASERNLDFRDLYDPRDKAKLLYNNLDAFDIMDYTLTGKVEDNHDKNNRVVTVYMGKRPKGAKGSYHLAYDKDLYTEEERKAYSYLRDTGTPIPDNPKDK

[16] = Artemis endonuclease inhibitor potency, dose response, biochemical, fluorescence intensity (AID 720701); type: functional;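 also: Artemis endonuclease enzyme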
[17] = target: Sphingosine 1-phosphate receptor 2 (Homo sapiens, UniProt O95136); assay: Dose Response Cell Based Assay for Antagonists of the S1P2 Receptor. [Related pubchem assays: 856, 736 ]; type: functional
Chain of Sphingosine 1-phosphate receptor 2 (O95136 whole entry): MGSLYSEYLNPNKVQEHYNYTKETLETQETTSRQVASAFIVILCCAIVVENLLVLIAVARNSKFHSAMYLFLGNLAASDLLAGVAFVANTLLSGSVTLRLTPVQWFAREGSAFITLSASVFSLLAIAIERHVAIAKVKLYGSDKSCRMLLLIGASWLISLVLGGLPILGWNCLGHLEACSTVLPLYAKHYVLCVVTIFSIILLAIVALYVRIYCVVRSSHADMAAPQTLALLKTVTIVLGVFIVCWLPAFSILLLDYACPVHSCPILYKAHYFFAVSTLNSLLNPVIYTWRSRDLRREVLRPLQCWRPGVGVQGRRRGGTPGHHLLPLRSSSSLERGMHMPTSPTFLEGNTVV

[18] = tested on: Streptococcus; assay: Group A Streptococcus viability loss, dose response, counter-screen for streptokinase expression inhibitor project, luminescence, BacTiterGlo (AID 1915); type: functional, organism-based;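 also: potency for reduction of bacterial viability or growth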

T1 sequence (Q92731 whole entry): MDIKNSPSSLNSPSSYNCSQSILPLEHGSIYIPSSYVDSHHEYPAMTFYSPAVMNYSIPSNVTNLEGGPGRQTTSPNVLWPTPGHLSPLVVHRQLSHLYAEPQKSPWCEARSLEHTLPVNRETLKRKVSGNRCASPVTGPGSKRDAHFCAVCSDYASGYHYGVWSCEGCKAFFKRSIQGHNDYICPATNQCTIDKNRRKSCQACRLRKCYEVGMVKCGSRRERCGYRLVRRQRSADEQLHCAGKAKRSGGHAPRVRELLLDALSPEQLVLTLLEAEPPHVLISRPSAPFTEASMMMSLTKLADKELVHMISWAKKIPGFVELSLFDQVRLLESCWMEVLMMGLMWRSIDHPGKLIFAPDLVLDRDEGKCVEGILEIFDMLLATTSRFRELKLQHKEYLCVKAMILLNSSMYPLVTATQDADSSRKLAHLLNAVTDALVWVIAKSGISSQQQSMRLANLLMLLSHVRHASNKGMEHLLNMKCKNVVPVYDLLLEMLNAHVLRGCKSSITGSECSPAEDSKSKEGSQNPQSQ

For `CCOC(=O)C1=c2/c(=C/c3ccccc3OC)c(N)c(C#N)n2C(=O)C(c2ccccc2OC)S1` (stereo not drawn), the IC50 [1] was > 50 µM (not active), the IC50 [2] was 78.5 µM (not active) and the IC50 [3] was 9.8 µM (active).

With `CCCCNC(=O)c1c(N)n(CCCOC)c2nc3ccccc3nc12` the IC50 [4] was > 100 µM (not active), the IC50 [5] was 17.9 µM (inactive) and the IC50 [6] was 27.7 µM (active). For the same compound, the AC50 [7] was 8.05 µM (active).

With `COC(=O)c1ccc(COc2ccccc2/C=C(\C#N)C(=O)Nc2c(C)cc(C)cc2C)cc1` the EC50 [8] was 5.33 µM (active), the EC50 [9] was 5.83 µM (active) and the AC50 [10] was 1.28 µM (active). For the same compound, the CC50 [11] was 15.9 µM (active).

With `Cc1cc(/C=N/n2cnnc2)c(C)n1-c1ccc(OCc2ccc(Cl)cc2)cc1` the EC50 [12] was 5.41 µM (active), the CC50 [13] was 1.02 µM (active) and the AC50 [14] was 1.15 µM (active). For the same compound, the EC50 [15] was 12.9 µM (active), the IC50 [16] was 15.7 µM (active) and the IC50 [17] was 49.3 µM (not active). The EC50 [18] was 12.3 µM (active).
